Measurements taken from patent US11840913B2, “Methods for stimulation of hydrocarbon-bearing formations while inhibiting corrosion of metal surfaces contacted by acid solutions used in stimulation” (Fluid Energy Group Ltd., priority 2019, dated 2023).

Experiments:
[1] = Corrosion testing of 316 steel coupons in acidic fluids with corrosion inhibitors
Excerpt: Corrosion inhibitor compositions according to preferred embodiments of the present invention were exposed to corrosion testing. Various steel grades (stainless steel and carbon steel) were subjected to acid compositions comprising corrosion inhibitors according to the present invention against known corrosion inhibitors to the listed compositions for various periods of time at varying temperatures. A desirable corrosion inhibition result was one where the lb/ft^2 corrosion number is at or below 0.05. More preferably, that number is at or below 0.02.
33% HCl:MEA in a 5.5:1 ratio and 50% HCl:MEA in a 5.5:1 ratio indicate the volume amount of the original concentration of a stock solution containing HCl and monoethanolamine in a ratio of 5.5:1. The HCl loading of a 33% HCl:MEA in a 5.5:1 ratio is approximately 6.5% HCl. The HCl loading of 50% HCl:MEA in a 5.5:1 ratio is approximately 10% HCl.

[2] = Visual corrosion testing on grease-coated wireline (Example 7); settings: MEA-HCl 1:4.1 molar ratio at 33% dilution in water; 48 hours; 60° C.
Protocol: A visual corrosion testing was carried out on wireline using three different coatings.
It is worth noting that the acid strength was the same in all three samples and the acidic composition only differed between the first two samples and the last sample with the presence of component B2.

SMILES: CC(C)=CCCC(C)=CC=O (racemic) [citral, (±)-3,7-Dimethyl-2,6-octadienal]
- prevention of pitting ([1]; higher temperatures (even 110° C. to 120° C.)): some effectiveness
- visual inspection of wireline wire sheathing after acid exposure [2]: completely stripped of its wire sheathing

SMILES: O=CC=Cc1ccccc1 [ZA, cinnamaldehyde]
- film forming, protection of the stainless steel ([1]; 90° C. to 110° C.): effective film former
